Test results taken from publication PMC9841523 (Journal of Medicinal Chemistry, 2022).
Like-named read-outs stand apart in the source and are kept apart here.

How the values were obtained:
[1] = molecular target: T1, MASTL (Homo sapiens, UniProt Q96GX5); assay: KiNativ kinase panel; type: cell-based; details: 1 μM, MCF-7 Cells
T1 construct: purchased ActivX Biosciences (KiNativ)
T1 sequence (Q96GX5 1-879): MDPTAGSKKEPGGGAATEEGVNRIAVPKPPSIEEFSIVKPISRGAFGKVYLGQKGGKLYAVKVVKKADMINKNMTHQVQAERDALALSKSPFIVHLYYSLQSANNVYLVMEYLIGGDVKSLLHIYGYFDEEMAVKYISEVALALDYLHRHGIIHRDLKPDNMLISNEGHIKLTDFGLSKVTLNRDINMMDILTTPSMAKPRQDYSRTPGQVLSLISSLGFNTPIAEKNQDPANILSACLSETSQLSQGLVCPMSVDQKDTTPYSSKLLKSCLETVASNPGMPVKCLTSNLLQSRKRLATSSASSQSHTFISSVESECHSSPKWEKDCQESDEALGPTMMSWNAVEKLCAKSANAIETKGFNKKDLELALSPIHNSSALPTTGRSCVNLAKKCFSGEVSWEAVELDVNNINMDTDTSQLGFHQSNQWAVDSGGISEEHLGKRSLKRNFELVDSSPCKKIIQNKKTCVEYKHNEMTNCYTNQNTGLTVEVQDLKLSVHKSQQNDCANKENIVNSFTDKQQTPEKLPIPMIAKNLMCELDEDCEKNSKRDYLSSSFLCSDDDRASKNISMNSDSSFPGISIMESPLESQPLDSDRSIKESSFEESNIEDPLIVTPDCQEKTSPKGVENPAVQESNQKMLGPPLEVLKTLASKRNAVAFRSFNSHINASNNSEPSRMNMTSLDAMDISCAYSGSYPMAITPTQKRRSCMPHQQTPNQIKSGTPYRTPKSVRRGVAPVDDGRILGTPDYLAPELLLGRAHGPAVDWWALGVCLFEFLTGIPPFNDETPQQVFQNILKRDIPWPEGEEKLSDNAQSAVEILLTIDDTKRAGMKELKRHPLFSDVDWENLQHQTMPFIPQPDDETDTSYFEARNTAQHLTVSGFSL

[2] = molecular target: T2, TYK2_Domain2 domain2 (Homo sapiens, UniProt P29597); assay: KiNativ kinase panel; type: cell-based; details: 1 μM; MCF-7 Cells; Activation Loop; IGDFGLAKAVPEGHEYYR
T2 construct: Briefly, MCF7 cells were exposed to; endogenous in cells; host or cells: MCF7

[3] = molecular target: T3, EGFR (Homo sapiens, UniProt P00533); assay: KiNativ kinase panel; type: cell-based; details: 1 μM, MCF-7 Cells
T3 construct: MCF7 cells were exposed to; endogenous in cells; host or cells: MCF7

[4] = molecular target: T4, LATS2 (Homo sapiens, UniProt Q9NRM7); assay: KiNativ kinase panel; type: cell-based; details: 1 μM, MCF-7 Cells
T4 construct: endogenous in cells; host or cells: MCF7
T4 sequence (Q9NRM7 1-1088): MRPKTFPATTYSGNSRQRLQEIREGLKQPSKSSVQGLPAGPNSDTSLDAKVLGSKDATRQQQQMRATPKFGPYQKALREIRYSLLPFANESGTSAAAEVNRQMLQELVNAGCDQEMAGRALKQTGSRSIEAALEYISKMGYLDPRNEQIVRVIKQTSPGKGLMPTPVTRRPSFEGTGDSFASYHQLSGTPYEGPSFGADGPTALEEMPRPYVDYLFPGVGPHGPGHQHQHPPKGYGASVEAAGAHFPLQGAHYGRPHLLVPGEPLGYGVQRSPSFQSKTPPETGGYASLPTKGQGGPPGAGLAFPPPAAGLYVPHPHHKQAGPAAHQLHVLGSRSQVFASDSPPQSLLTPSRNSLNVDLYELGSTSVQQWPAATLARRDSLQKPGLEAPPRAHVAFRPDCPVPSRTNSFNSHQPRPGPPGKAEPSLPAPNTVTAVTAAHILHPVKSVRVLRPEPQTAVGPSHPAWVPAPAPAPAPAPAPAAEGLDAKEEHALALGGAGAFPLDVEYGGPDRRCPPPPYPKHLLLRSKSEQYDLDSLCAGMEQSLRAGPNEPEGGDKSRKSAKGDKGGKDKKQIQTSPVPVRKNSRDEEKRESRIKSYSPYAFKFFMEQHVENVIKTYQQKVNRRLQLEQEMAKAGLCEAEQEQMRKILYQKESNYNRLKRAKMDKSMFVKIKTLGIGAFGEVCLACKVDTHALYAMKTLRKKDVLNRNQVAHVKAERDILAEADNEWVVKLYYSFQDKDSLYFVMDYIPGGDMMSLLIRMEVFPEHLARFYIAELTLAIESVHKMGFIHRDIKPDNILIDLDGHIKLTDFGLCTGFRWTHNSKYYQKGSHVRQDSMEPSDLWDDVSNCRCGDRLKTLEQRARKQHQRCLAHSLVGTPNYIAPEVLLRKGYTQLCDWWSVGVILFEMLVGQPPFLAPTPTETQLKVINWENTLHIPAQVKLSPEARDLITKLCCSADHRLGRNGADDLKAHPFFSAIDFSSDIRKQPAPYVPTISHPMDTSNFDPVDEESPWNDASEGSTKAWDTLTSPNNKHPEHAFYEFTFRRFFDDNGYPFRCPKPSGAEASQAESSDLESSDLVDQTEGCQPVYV

[5] = molecular target: T5, NuaK2 (Homo sapiens, UniProt Q9H093); assay: KiNativ kinase panel; type: cell-based; details: 1 μM; MCF-7 Cells; Lys1; LVAIKSIR
T5 construct: purchased ActivX Biosciences (KiNativ)

[6] = test system: MST1, MST2; assay: KiNativ kinase panel; type: cell-based, human; details: 1 μM, MCF-7 Cells, Lys2
[7] = molecular target: T6, DNA-PK (Homo sapiens, UniProt P78527); assay: Nanosyn Lipid Kinase screen; type: biochemical
T6 construct: purchased Promega V4106
Procedure: complex formation) controls.
Nanosyn Lipid Kinase screen. Biochemical inhibition of lipid and related protein kinases was determined by Nanosyn (Santa Clara, CA). […]
ADP formation using ADP-Glo (Promega). Kinase reactions were assembled in 384 well plates in a total volume of 20 µL as follows. […]
Compounds were serially pre-diluted in DMSO and added to the protein samples by acoustic dispensing (200 nL, Labcyte Echo). Concentration of DMSO was equalized to 1% in all samples. All test compounds were tested at 12 concentrations, 3x dilution intervals. The control samples (0%-inhibition in the absence of inhibitor, DMSO only) and 100%-inhibition (in the absence of enzyme) were assembled in replicates of four and were used to calculate %-inhibition in the presence of compounds. […]

[8] = test system: PITSLRE; assay: KiNativ kinase panel; type: cell-based, human; details: 1 μM; MCF-7 Cells; Lys2; DLKTSNLLLSHAGILK
[9] = molecular target: T7, LOK (Homo sapiens, UniProt O94804); assay: KiNativ kinase panel; type: cell-based; details: 1 μM; MCF-7 Cells; Lys2; DLKAGNVLMTLEGDIR
T7 construct: endogenous in cells; host or cells: MCF7
T7 sequence (O94804 whole entry): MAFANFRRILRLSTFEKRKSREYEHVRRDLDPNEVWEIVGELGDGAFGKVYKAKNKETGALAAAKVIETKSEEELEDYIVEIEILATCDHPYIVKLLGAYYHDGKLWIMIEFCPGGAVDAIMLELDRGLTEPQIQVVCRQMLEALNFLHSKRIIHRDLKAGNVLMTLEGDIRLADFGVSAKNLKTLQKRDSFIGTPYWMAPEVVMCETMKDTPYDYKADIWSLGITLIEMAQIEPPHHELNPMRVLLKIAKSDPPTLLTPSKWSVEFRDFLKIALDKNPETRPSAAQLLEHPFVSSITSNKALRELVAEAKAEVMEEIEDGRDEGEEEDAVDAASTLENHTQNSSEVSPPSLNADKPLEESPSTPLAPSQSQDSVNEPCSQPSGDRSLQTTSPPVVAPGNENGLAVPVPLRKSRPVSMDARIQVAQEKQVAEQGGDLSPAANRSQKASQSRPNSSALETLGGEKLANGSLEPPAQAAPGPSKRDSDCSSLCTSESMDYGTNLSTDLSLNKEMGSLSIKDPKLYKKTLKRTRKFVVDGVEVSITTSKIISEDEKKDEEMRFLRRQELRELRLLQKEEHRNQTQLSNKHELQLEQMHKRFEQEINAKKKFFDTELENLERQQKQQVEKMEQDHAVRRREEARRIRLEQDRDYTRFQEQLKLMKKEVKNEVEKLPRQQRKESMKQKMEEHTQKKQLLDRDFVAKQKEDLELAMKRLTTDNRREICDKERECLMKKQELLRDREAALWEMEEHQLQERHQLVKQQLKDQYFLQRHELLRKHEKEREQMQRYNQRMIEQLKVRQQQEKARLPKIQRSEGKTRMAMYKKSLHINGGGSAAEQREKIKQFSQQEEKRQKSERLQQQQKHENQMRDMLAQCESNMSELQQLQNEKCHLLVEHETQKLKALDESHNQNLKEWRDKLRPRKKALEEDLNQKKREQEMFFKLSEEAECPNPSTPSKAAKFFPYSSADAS

T3 sequence (P00533 25-1210): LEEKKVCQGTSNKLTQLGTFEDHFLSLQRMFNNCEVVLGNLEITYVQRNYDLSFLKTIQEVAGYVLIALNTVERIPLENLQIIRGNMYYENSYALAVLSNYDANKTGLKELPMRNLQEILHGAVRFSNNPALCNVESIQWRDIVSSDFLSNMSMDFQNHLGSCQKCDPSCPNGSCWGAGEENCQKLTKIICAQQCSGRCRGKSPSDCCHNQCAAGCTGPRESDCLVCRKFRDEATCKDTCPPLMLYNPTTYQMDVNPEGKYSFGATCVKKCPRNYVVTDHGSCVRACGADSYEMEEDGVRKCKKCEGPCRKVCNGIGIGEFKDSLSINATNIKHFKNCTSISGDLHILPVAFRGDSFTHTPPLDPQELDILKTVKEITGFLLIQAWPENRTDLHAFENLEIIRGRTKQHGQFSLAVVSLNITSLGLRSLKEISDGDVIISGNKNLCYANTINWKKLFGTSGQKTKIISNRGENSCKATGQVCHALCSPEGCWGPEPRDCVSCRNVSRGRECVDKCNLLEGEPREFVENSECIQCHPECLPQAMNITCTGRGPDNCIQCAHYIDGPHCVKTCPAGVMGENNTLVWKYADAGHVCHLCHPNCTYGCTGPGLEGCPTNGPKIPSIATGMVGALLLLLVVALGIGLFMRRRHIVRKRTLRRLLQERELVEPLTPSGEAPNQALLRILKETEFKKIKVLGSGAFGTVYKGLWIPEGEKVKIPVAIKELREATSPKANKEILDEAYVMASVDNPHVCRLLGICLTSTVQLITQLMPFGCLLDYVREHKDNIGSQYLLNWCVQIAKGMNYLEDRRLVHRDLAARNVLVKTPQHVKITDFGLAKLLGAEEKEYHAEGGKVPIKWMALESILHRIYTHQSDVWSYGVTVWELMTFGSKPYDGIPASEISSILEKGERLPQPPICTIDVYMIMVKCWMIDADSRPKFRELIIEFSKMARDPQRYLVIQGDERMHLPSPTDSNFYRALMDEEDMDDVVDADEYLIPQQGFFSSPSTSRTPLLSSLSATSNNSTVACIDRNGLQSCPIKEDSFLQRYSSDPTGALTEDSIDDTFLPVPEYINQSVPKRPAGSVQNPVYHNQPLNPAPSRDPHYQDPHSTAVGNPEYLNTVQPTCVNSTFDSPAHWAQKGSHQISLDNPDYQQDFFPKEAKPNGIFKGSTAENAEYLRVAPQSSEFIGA
T5 sequence (Q9H093 whole entry): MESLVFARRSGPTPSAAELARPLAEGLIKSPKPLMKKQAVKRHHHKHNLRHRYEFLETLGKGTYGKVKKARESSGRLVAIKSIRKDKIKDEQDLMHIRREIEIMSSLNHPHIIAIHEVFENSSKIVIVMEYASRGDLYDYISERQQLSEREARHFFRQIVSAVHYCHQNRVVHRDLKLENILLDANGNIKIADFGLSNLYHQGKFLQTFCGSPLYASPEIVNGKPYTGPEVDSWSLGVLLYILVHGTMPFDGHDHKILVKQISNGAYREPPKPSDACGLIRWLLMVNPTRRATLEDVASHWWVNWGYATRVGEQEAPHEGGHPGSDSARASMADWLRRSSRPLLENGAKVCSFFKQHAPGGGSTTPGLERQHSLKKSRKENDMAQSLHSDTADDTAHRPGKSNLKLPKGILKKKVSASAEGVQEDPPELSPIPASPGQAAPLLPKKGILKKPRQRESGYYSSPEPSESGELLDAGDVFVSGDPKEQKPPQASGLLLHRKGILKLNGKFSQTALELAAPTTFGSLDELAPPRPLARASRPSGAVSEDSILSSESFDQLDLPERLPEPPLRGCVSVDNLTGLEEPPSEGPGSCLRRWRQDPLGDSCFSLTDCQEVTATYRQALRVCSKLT
T2 sequence (P29597 whole entry, the tested form may be a part): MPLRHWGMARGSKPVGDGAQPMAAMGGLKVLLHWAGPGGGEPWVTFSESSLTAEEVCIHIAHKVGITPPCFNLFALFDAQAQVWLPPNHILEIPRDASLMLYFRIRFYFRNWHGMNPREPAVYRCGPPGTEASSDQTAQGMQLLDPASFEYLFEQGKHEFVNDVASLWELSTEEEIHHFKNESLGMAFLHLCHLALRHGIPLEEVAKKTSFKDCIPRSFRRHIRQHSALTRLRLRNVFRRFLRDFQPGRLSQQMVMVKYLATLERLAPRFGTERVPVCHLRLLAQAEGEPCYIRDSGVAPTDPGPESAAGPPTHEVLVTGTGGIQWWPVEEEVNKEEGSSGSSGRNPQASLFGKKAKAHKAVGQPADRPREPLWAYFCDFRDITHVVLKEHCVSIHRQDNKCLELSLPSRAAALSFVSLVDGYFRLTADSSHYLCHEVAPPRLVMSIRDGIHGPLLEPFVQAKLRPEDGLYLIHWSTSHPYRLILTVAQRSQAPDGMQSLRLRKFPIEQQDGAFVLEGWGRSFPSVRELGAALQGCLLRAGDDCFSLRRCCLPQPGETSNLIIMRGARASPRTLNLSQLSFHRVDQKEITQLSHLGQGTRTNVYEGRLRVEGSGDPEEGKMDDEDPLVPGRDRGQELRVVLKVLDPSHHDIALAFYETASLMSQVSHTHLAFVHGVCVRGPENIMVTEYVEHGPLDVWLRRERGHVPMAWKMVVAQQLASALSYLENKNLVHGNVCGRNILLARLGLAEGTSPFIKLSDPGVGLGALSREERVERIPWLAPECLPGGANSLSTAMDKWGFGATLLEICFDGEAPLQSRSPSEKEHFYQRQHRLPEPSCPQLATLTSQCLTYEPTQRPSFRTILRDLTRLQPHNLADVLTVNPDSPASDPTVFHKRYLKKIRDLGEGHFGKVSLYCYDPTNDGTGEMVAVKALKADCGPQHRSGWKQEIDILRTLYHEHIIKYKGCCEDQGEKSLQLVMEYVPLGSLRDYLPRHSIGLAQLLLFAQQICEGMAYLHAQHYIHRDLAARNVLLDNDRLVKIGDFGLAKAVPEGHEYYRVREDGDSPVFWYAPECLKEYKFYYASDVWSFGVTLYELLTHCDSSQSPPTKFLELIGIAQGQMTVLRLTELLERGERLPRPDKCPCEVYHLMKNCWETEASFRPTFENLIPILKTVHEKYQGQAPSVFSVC

| Compound | KiNativ Kinase Panel Data ([1]; Lys1, LYAVKVVK) | KiNativ Kinase Panel Data [2] | KiNativ Kinase Panel Data ([3]; Activation Loop, LLGAEEKEYHAEGGKVPIK) | KiNativ Kinase Panel Data ([3]; Lys1, IPVAIKELR) | KiNativ Kinase Panel Data ([4]; Lys1, VDTHALYAMKTLR) | KiNativ Kinase Panel Data ([4]; Lys2, DIKPDNILIDLDGHIK) | KiNativ Kinase Panel Data [5] | KiNativ Kinase Panel Data ([6]; DIKAGNILLNTEGHAK) | IC50 ([7]; Nanosyn, with FKBP12) | KiNativ Kinase Panel Data [8] | KiNativ Kinase Panel Data [9] | KiNativ Kinase Panel Data ([1]; ATP Loop, GAFGKVYLGQK) | KiNativ Kinase Panel Data ([3]; Activation Loop, […]) | KiNativ Kinase Panel Data ([4]; Lys1, […]) | KiNativ Kinase Panel Data ([6]; […]) | IC50 [7] |
| --- | --- | --- | --- | --- | --- | --- | --- | --- | --- | --- | --- | --- | --- | --- | --- | --- |
| CO[C@H]1C[C@@H]2CC[C@@H](C)[C@@](O)(O2)C(=O)C(=O)N2CCCC[C@H]2C(=O)O[C@H]([C@H](C)C[C@@H]2CC[C@@H](OC(=O)NCCOCCOCCOCCOCCOCCOCCOCCOCCC(=O)NCCS(=O)(=O)c3ccc(C(=O)N4CCOc5ccc(-c6ccc(N)nc6)cc5C4)c(C)c3F)[C@H](OC)C2)C[C@@H](O)[C@H](C)/C=C(\C)[C@@H](O)[C@@H](OC)C(=O)[C@H](C)C[C@H](C)/C=C/C=C/C=C/1C [compound 40] | -10.0 | 1.9 | -40.0 | -27.8 | -0.8 | -1.4 | 16.0 | -6.5 | > 1000 nM | 13.7 | -19.4 |  |  |  |  |  |
| CO[C@H]1C[C@@H]2CC[C@@H](C)[C@@](O)(O2)C(=O)C(=O)N2CCCC[C@H]2C(=O)O[C@H]([C@H](C)C[C@@H]2CC[C@@H](OC(=O)NCCOCCOCCOCCOCCOCCOCCOCCOCCC(=O)N3CCc4cc(Cn5nc(-c6ccc7oc(N)nc7c6)c6c(N)ncnc65)ccc4C3)[C@H](OC)C2)C[C@@H](O)[C@H](C)/C=C(\C)[C@@H](O)[C@@H](OC)C(=O)[C@H](C)C[C@H](C)/C=C/C=C/C=C/1C [compound 38] | 17.4 | 15.6 |  | -7.4 |  | 22.9 | 18.8 |  |  | 17.8 | -65.4 | 4.3 | -1.8 | -20.5 | 3.0 | > 1000 nM |
